Data reported in patent US9834542B2, “LXR modulators” (BRISTOL-MYERS SQUIBB COMPANY, priority 2013, dated 2017).

Target: T1, LXRβ (Homo sapiens, UniProt P55055)
T1 construct: Co-transfection expression plasmids, comprising full-length LXRα (pCMX-h LXRα[…] or LXRβ (pCMX-hLXRβ)); expressed in transfected cells; host or cells: CV-1 African Green Monkey Kidney Cells
T1 sequence (P55055 1-460): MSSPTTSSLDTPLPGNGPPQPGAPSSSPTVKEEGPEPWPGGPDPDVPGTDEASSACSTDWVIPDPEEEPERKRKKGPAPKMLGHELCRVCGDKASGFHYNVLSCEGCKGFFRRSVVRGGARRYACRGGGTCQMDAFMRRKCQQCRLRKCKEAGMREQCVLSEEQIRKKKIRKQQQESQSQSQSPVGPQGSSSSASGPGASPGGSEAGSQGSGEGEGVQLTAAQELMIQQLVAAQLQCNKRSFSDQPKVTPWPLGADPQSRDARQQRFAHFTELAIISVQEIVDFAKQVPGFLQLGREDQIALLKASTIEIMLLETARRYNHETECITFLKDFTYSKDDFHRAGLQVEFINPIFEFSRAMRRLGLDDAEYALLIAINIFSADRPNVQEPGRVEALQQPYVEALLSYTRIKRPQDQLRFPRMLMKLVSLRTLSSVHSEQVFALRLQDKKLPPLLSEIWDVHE
T1 sequence (P19793 1-462 partner): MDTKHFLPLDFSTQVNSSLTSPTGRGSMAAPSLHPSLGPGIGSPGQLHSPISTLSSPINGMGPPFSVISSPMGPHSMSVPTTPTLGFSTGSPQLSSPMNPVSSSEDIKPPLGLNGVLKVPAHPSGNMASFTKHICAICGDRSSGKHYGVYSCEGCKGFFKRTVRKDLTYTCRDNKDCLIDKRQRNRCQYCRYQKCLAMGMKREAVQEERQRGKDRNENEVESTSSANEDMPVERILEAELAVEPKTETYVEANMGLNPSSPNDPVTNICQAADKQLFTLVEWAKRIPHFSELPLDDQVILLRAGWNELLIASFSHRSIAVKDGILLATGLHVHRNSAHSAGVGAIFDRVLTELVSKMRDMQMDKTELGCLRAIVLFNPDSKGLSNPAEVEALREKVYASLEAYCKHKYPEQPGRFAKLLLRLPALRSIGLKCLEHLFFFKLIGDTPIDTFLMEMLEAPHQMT
Experiment: Co-transfection assay (LXRE luciferase reporter), LXRβ
Assay type: cell-based
Conditions: for EC50: CV-1 cells transfected with pCMX-hLXRβ and LXREx1-Tk-Luciferase, 20 hours incubation; for Emax: LXRβ co-transfection, relative to high control 1-(2,4-difluorobenzyl)-2-oxo-6-(4-phenoxyphenyl)-4-(trifluoromethyl)-1,2-dihydropyridine-3-carbonitrile, read-out: % Efficacy
Summary of the method: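 CV-1 / pCMX-hLXRβ + LXREx1-Tk-Luc + β-gal; cpd 20 h, 37 °C, ≤0.5% DMSO; Steady-Glo luminescence. 11-pt ½-log curves, duplicate wells, sigmoidal fit → EC50; % efficacy vs high-control agonist, DMSO low control; mean of ≥2 expts.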

| SMILES | EC50 | Emax |
| --- | --- | --- |
| Cc1nc(C(F)F)c(C)n1-c1ccc(-c2cc(F)c(CO)c(S(C)(=O)=O)c2)cc1-n1nncc1-c1ccc(Cl)cc1 [Example 231, (3′-(5-(4-chlorophenyl)-1H-1,2,3-triazol-1-yl)-4′-(4-(difluoromethyl)-2,5-dimethyl-1H-imidazol-1-yl)-3-fluoro-5-(methylsulfonyl)-[1,1′-biphenyl]-4-yl)methanol] | 1680 nM | 37% |
| Cc1nc(-c2cc(-c3cc(F)c(CO)c(S(C)(=O)=O)c3)ccc2-n2cc(C(F)(F)F)nc2C)c(-c2ccc(Cl)nc2)o1 [Example 551, (3′-(5-(6-chloropyridin-3-yl)-2-methyloxazol-4-yl)-3-fluoro-4′-(2-methyl-4-(trifluoromethyl)-1H-imidazol-1-yl)-5-(methylsulfonyl)-[1,1′-biphenyl]-4-yl)methanol] | 522 nM | 79% |
| Cc1nc(-c2ccc3c(c2)OC(F)(F)O3)c(-c2cc(-c3cc(F)c(CO)c(S(C)(=O)=O)c3)ccc2-n2cc(C(F)(F)F)nc2C)o1 [Example 617, (3′-(4-(2,2-difluorobenzo[d][1,3]dioxol-5-yl)-2-methyloxazol-5-yl)-3-fluoro-4′-(2-methyl-4-(trifluoromethyl)-1H-imidazol-1-yl)-5-(methylsulfonyl)-[1,1′-biphenyl]-4-yl)methanol] | 37 nM | 84% |
| CS(=O)(=O)c1cc(-c2cc(F)c(-n3cnc(C(F)(F)F)c3)c(-n3nncc3-c3ccc(Cl)cc3Cl)c2)cc(F)c1CO [Example 190, {3′-[5-(2,4-dichlorophenyl)-1H-1,2,3-triazol-1-yl]-3,5′-difluoro-5-(methylsulfonyl)-4′-[4-(trifluoromethyl)-1H-imidazol-1-yl]biphenyl-4-yl}methanol] | 208 nM | 119% |
| Cc1nc(C(F)(F)F)cn1-c1ccc(-c2cccc(S(C)(=O)=O)c2)cc1-n1nncc1-c1cccc(C(F)(F)F)c1 [Example 25, 1-{3′-(methylsulfonyl)-4-[2-methyl-4-(trifluoromethyl)-1H-imidazol-1-yl]biphenyl-3-yl}-5-[3-(trifluoromethyl)phenyl]-1H-1,2,3-triazole] | 529 nM | 116% |
| Cc1nc(C(F)(F)F)cn1-c1c(F)cc(-c2ccc(CO)c(S(C)(=O)=O)c2)cc1-n1nncc1-c1ccc(Cl)cc1 [Example 210, {3′-[5-(4-chlorophenyl)-1H-1,2,3-triazol-1-yl]-5′-fluoro-3-(methylsulfonyl)-4′-[2-methyl-4-(trifluoromethyl)-1H-imidazol-1-yl]biphenyl-4-yl}methanol] | 394 nM | 78% |
| Cc1ccc(C(C)c2cnnn2-c2cc(-c3cc(F)c(CO)c(S(C)(=O)=O)c3)ccc2-n2cc(C(F)(F)F)nc2C)cc1 (stereo not shown) [Example 9, (3-fluoro-3′-{5-[1-(4-methylphenyl)ethyl]-1H-1,2,3-triazol-1-yl}-5-(methylsulfonyl)-4′-[2-methyl-4-(trifluoromethyl)-1H-imidazol-1-yl]biphenyl-4-yl)methanol] | 66 nM | 75% |
| Cc1nc(-c2cc(-c3cccc(S(C)(=O)=O)c3)ccc2-n2cc(C(F)(F)F)nc2C)c(-c2cc(Cl)cc(Cl)c2)o1 [Example 455, 5-(3,5-dichlorophenyl)-2-methyl-4-(4-(2-methyl-4-(trifluoromethyl)-1H-imidazol-1-yl)-3′-(methylsulfonyl)biphenyl-3-yl)oxazole] | 192 nM | 43% |
| Cc1nc(-c2cc(-c3cc(F)c(CO)c(S(C)(=O)=O)c3)ccc2-n2cc(C(F)(F)F)nc2C)c(-c2ccc(OC3CCCCC3)nc2)o1 [Example 409, (3′-(5-(6-(cyclohexyloxy)pyridin-3-yl)-2-methyloxazol-4-yl)-3-fluoro-4′-(2-methyl-4-(trifluoromethyl)-1H-imidazol-1-yl)-5-(methylsulfonyl)biphenyl-4-yl)methanol] | 130 nM | 45% |
| CNS(=O)(=O)c1cccc(-c2ccc(-n3cc(C(F)(F)F)nc3C)c(-n3nncc3-c3ccc(OC(F)(F)F)cc3)c2)c1 [Example 213, N-methyl-4′-(2-methyl-4-(trifluoromethyl)-1H-imidazol-1-yl)-3′-(5-(4-(trifluoromethoxy)phenyl)-1H-1,2,3-triazol-1-yl)-[1,1′-biphenyl]-3-sulfonamide] | 94 nM | 89% |
| CCC(F)(F)c1cn(-c2ccc(-c3cccc(S(C)(=O)=O)c3)cc2-c2nc(C)oc2-c2ccc(OC(F)(F)F)cc2)c(C)n1 [Example 517, 4-(4-(4-(1,1-difluoropropyl)-2-methyl-1H-imidazol-1-yl)-3′-(methylsulfonyl)-[1,1′-biphenyl]-3-yl)-2-methyl-5-(4-(trifluoromethoxy)phenyl)oxazole] | 146 nM | 47% |
| Cc1nc(C(F)(F)F)cn1-c1ccc(-c2cccc(S(C)(=O)=O)c2)cc1-c1oc(CC(=O)O)nc1-c1ccc(OC(F)(F)F)cc1 [Example 610, 2-(5-(4-(2-methyl-4-(trifluoromethyl)-1H-imidazol-1-yl)-3′-(methylsulfonyl)-[1,1′-biphenyl]-3-yl)-4-(4-(trifluoromethoxy)phenyl)oxazol-2-yl)acetic acid] | 257 nM | 94% |
| Cc1nc(C(F)(F)F)cn1-c1ccc(-c2cc(Cl)c(CO)c(S(C)(=O)=O)c2)cc1-n1nncc1-c1ccc(OC(F)(F)F)cc1 [Example 212, (3-chloro-4′-(2-methyl-4-(trifluoromethyl)-1H-imidazol-1-yl)-5-(methylsulfonyl)-3′-(5-(4-(trifluoromethoxy)phenyl)-1H-1,2,3-triazol-1-yl)-[1,1′-biphenyl]-4-yl)methanol] | 430 nM | 101% |
| Cc1nc(-c2cc(-c3ccc(C)c(S(C)(=O)=O)c3)ccc2-n2cc(C(F)(F)F)nc2C)c(-c2ccc3c(c2)OC(F)(F)O3)o1 [Example 445, 5-(2,2-difluorobenzo[d][1,3]dioxol-5-yl)-2-methyl-4-(4′-methyl-4-(2-methyl-4-(trifluoromethyl)-1H-imidazol-1-yl)-3′-(methylsulfonyl)biphenyl-3-yl)oxazole] | 36 nM | 69% |
| Cc1nc(C(F)(F)F)cn1-c1ccc(-c2cccc(S(C)(=O)=O)c2)cc1-c1ccnn1-c1ccc(Cl)cc1 [Example 286, 1-(4-chlorophenyl)-5-{3′-(methylsulfonyl)-4-[2-methyl-4-(trifluoromethyl)-1H-imidazol-1-yl]biphenyl-3-yl}-1H-pyrazole] | 152 nM | 84% |
| Cc1nc(-c2cc(-c3cc(F)c(CO)c(S(C)(=O)=O)c3)ccc2-n2cc(C(F)(F)F)nc2C)c(-c2cccc(Cl)n2)o1 [Example 427, (3′-(5-(6-chloropyridin-2-yl)-2-methyloxazol-4-yl)-3-fluoro-4′-(2-methyl-4-(trifluoromethyl)-1H-imidazol-1-yl)-5-(methylsulfonyl)biphenyl-4-yl)methanol] | 143 nM | 63% |
| Cc1nc(C(F)(F)F)cn1-c1ccc(-c2cc(F)c(CO)c(S(C)(=O)=O)c2)cc1-n1nncc1-c1ccc(Cl)cc1 [Example 58, {3′-[5-(4-chlorophenyl)-1H-1,2,3-triazol-1-yl]-3-fluoro-5-(methylsulfonyl)-4′-[2-methyl-4-(trifluoromethyl)-1H-imidazol-1-yl]biphenyl-4-yl}methanol] | 217 nM | 78% |
